Measurements published in patent US5079150A, “High sensitivity detection of peroxidase activity” (Becton, Dickinson and Company, priority 1988, dated 1992).

Legend:
[1] = molecular target: T1, Horseradish peroxidase (Armoracia rusticana, UniProt P00433); assay: Comparison of substrates for HRP detection on membranes, reflectance densitometer; format: biochemical; settings: substrate 2 mg/mL, approximately three minutes
T1 sequence (P00433 31-353): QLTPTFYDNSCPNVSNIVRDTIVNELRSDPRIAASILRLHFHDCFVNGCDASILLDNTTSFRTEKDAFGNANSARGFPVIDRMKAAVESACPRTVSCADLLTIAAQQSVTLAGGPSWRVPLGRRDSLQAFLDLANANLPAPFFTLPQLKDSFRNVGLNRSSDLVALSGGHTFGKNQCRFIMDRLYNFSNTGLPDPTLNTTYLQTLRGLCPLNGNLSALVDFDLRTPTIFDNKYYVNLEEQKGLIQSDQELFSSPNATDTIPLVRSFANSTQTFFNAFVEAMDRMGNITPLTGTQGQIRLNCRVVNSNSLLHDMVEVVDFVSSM
Experimental: Horseradish peroxidase was diluted serially in 10-fold steps in a buffer containing 51 mM phosphate, 24 mM citrate, pH 5.0. Spot volumes of 1 μL of each stock were applied to either nitrocellulose (0.45 micron, Schleicher and Schuell) or IMMUNODYNE™ nylon immunoaffinity membrane (5 micron, Pall). The membranes were allowed to air dry and then immersed in filtered substrate solutions containing 2 mg/mL of substrate compound and 0.68 μL/mL of 30% hydrogen peroxide in citrate/phosphate buffer. The reaction was quenched after approximately three minutes with a water rinse. The colored spots were quantitated with a reflectance densitometer (Gretag model 183). The results are presented in Table II in arbitrary units of color density.

[2] = molecular target: T2, HRP conjugated anti RSV monoclonal antibody (Armoracia rusticana, UniProt P00433); assay: Sandwich immunoassay for RSV on IMMUNODYNE nylon membrane, HRP-labelled antibody, colored spot read with densitometer; format: biochemical, Horseradish; settings: for intensity of the colored spot (color density): substrate 2 mg/mL
T2 sequence (P00433 31-338 limits assumed): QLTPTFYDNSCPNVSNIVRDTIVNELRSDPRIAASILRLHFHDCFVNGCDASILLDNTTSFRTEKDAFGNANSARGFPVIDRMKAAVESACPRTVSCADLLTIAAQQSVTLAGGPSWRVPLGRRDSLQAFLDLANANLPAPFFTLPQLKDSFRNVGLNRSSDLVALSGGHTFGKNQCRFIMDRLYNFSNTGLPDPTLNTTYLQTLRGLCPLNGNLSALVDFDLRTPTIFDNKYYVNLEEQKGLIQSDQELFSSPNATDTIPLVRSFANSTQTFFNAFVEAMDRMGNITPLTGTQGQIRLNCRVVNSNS
Experimental: Ten μg of anti RSV antibody in 2 μl of carbonate buffer (50 mM, pH 9.5) were applied to an IMMUNODYNE™ nylon membrane with a micropipette. The membrane was incubated with a TRIS buffered solution of casein to block the remaining sites, and dried. The membrane was assembled into a device which allows liquids to be passed through the membrane and into an absorbent pad. Serial dilutions of a 300 ng stock of RSV infected HEp-2 cells were prepared in a buffer containing TRIS, sodium chloride, EDTA and a detergent. 150 μl of this material was passed through the membrane. Another antibody coated membrane was treated with 300 ng of uninfected cells as a control.
The membranes were washed with TRIS buffered saline (TBS) and incubated with HRP conjugated anti RSV monoclonal antibody in TRIS containing casein. After two washings with TBS buffer, the membranes were treated with citrate/phosphate buffered (pH 5.0) solutions of DAT and DAB (2 mg/mL) containing hydrogen peroxide. After a five minute incubation, the enzymatic reaction was stopped by the addition of TBS, and the intensity of the colored spots was compared using a densitometer (Model 183, Gretag Ltd., CH-8105 Regensdorf, Switzerland). The background control substracted results of this experiment are presented in Table 1 in arbitrary units of color density.

[3] = IMMUNODYNE nylon membrane, amount of HRP 30 pg
[4] = IMMUNODYNE nylon membrane, amount of HRP 0.3 ng
[5] = IMMUNODYNE nylon membrane, amount of HRP 3 ng
[6] = IMMUNODYNE nylon membrane, amount of HRP 30 ng
[7] = IMMUNODYNE nylon membrane, amount of HRP 0.3 mg
[8] = Nitrocellulose membrane, amount of HRP 30 pg
[9] = Nitrocellulose membrane, amount of HRP 0.3 ng
[10] = Nitrocellulose membrane, amount of HRP 3 ng
[11] = Nitrocellulose membrane, amount of HRP 30 ng
[12] = Nitrocellulose membrane, amount of HRP 0.3 mg
[13] = 11 ng of infected cells, pH 5.0, five minute incubation
[14] = 33 ng of infected cells, pH 5.0, five minute incubation
[15] = 100 ng of infected cells, pH 5.0, five minute incubation
[16] = 300 ng of RSV infected HEp-2 cells, pH 5.0, hydrogen peroxide, five minute incubation, background control subtracted
[17] = Control: 300 ng of uninfected cells, pH 5.0, five minute incubation

Structure (SMILES) | color density of spot [1, 3] | color density of spot [1, 4] | color density of spot [1, 5] | color density of spot [1, 6] | color density of spot [1, 7] | color density of spot [1, 8] | color density of spot [1, 9] | color density of spot [1, 10] | color density of spot [1, 11] | color density of spot [1, 12] | intensity of the colored spot (color density) [2, 13] | intensity of the colored spot (color density) [2, 14] | intensity of the colored spot (color density) [2, 15] | intensity of the colored spot (color density) [2, 16] | color reading on the densitometer, in words ([2]; 300 ng of infected cells) | intensity of the colored spot (color density) [2, 17] | amount of infected cells down to which stable, deeply colored spots well above control values were obtained ([2]; RSV infected HEp-2 cells) [ng]
Nc1cc(Cl)c(Cl)cc1N [4,5-Dichloro-1,2-phenylenediamine] | .00 arbitrary units | .00 arbitrary units | .10 arbitrary units | .41 arbitrary units | .48 arbitrary units | .02 arbitrary units | .10 arbitrary units | .31 arbitrary units | .43 arbitrary units | .60 arbitrary units |  |  |  |  |  |  | 
Cc1cc(N)c(N)cc1C [4,5-Dimethyl-1,2-phenylenediamine] | .00 arbitrary units | .05 arbitrary units | .22 arbitrary units | .50 arbitrary units | .53 arbitrary units | .03 arbitrary units | .11 arbitrary units | .22 arbitrary units | .43 arbitrary units | .55 arbitrary units |  |  |  |  |  |  | 
Nc1ccc(Cl)cc1N [4-Chloro-1,2-phenylenediamine] | .06 arbitrary units | .12 arbitrary units | .68 arbitrary units | 1.89 arbitrary units | 2.24 arbitrary units | .09 arbitrary units | .26 arbitrary units | .55 arbitrary units | .87 arbitrary units | 1.25 arbitrary units |  |  |  |  |  |  | 
Nc1ccc(-c2ccc(N)c(N)c2)cc1N [DAB, 3,3'-diaminobenzidine, reference compound] | .00 arbitrary units | .04 arbitrary units | .22 arbitrary units | .78 arbitrary units | 1.67 arbitrary units | .00 arbitrary units | .04 arbitrary units | .22 arbitrary units | .43 arbitrary units | 1.03 arbitrary units | .04 arbitrary units | .03 arbitrary units | .04 arbitrary units | .07 arbitrary units | barely perceptible color reading | 0 arbitrary units | 
Cc1ccc(N)c(N)c1 [DAT, 3,4 Diaminotoluene] | .04 arbitrary units | .21 arbitrary units | .54 arbitrary units | .85 arbitrary units | .99 arbitrary units | .03 arbitrary units | .09 arbitrary units | .10 arbitrary units | .28 arbitrary units | .38 arbitrary units | .28 arbitrary units | .37 arbitrary units | .57 arbitrary units | .82 arbitrary units |  | .24 arbitrary units | 33
Cc1cc(-c2cc(C)c(N)c(C)c2)cc(C)c1N [TMB, 3,3',5,5'-tetramethylbenzidine, reference compound] | .00 arbitrary units | .00 arbitrary units | .11 arbitrary units | .19 arbitrary units | .23 arbitrary units | .01 arbitrary units | .04 arbitrary units | .08 arbitrary units | .09 arbitrary units | .09 arbitrary units |  |  |  |  |  |  | 
